Several values for one entry are separate records, joined by “and”; a condition that tells them apart may be missing. Equal entries are not always repeated. Inconclusive results and toxic doses are left out. Starred links: 1 amine or outer side, 2 acyl side, 3 side chain; linkers in the order of their positions; H or OH if unused. Positions of bridges follow the written chain, without caps; N, C: chain ends. Non-standard residues stand in square brackets, D forms with d. Residues, ends and D or L forms follow the SMILES beside them. Chains are numbered I, II in the order given. Actinocin(9to1) = Cc1c2oc3c(C)ccc(C(=O)[*:1])c3nc-2c(C(=O)[*:2])c(N)c1=O; aThr = C[C@H](O)[C@H](N)C(=O)O; NMeV = CN[C@H](C(=O)O)C(C)C; Sar = CNCC(=O)O
System: Lymphoma 4 ip in BDF1 mice, median survival
Experiment: NCI In Vivo Anticancer Drug Screen. Data for tumor model Lymphoma 4 (intraperitoneal) in B6D2F1 (BDF1) mice
Conditions: endpoint: median survival time, higher = longer survival
Description: The antitumor activity of compounds was measured in mice bearing transplantable tumors. Survival or tumor size were measured and the results are expressed as the measurement made in the treated group (T) divided by the measurement made in the vehicle treated control group (C). The tumor model used in this assay is Lymphoma 4 (intraperitoneal) in B6D2F1 (BDF1) mice

[1] = dose: 0.5 mg/kg/injection, schedule: Q01DX010 (ip), vehicle: saline
[2] = dose: 1.0 mg/kg/injection, schedule: Q01DX010 (ip), vehicle: saline
[3] = dose: 2.0 mg/kg/injection, schedule: Q01DX010 (ip), vehicle: saline
[4] = dose: 1.25 mg/kg/injection, schedule: Q01DX010 (ip), vehicle: saline
[5] = dose: 5.0 mg/kg/injection, schedule: Q01DX010 (ip), vehicle: saline
[6] = dose: 10.0 mg/kg/injection, schedule: Q01DX010 (ip), vehicle: saline
[7] = dose: 50.0 mg/kg/injection, schedule: Q01DX010 (ip), vehicle: saline
[8] = dose: 100.0 mg/kg/injection, schedule: Q01DX010 (ip), vehicle: saline
[9] = dose: 200.0 mg/kg/injection, schedule: Q01DX010 (ip), vehicle: saline
[10] = dose: 400.0 mg/kg/injection, schedule: Q01DX010 (ip), vehicle: saline
[11] = dose: 25.0 mg/kg/injection, schedule: Q01DX010 (ip), vehicle: saline
[12] = dose: 4.0 mg/kg/injection, schedule: Q01DX010 (ip), vehicle: saline
[13] = dose: 8.0 mg/kg/injection, schedule: Q01DX010 (ip), vehicle: saline
[14] = dose: 16.0 mg/kg/injection, schedule: Q01DX010 (ip), vehicle: saline
[15] = dose: 20.0 mg/kg/injection, schedule: Q01DX010 (ip), vehicle: saline
[16] = dose: 40.0 mg/kg/injection, schedule: Q01DX010 (ip), vehicle: saline
[17] = dose: 3.13 mg/kg/injection, schedule: Q01DX010 (ip), vehicle: saline
[18] = dose: 6.25 mg/kg/injection, schedule: Q01DX010 (ip), vehicle: saline
[19] = dose: 12.5 mg/kg/injection, schedule: Q01DX010 (ip), vehicle: saline
[20] = dose: 32.0 mg/kg/injection, schedule: Q01DX010 (ip), vehicle: saline
[21] = dose: 62.5 mg/kg/injection, schedule: Q01DX010 (ip), vehicle: saline
[22] = dose: 125.0 mg/kg/injection, schedule: Q01DX010 (ip), vehicle: saline
[23] = dose: 250.0 mg/kg/injection, schedule: Q01DX010 (ip), vehicle: saline
[24] = dose: 500.0 mg/kg/injection, schedule: Q01DX010 (ip), vehicle: saline
[25] = dose: 2.5 mg/kg/injection, schedule: Q01DX010 (ip), vehicle: saline

Nc1nc(=S)c2ncn(C3OC(CO)C(O)C3O)c2[nH]1 (configuration not stated)
T/C (dose: 0.25 mg/kg/injection, schedule: Q01DX010 (ip), vehicle: saline): 100 % of control
T/C [1]: 106 % of control
T/C [2]: 102 % of control and 115 % of control
T/C [3]: 100 % of control

O=C(O)c1[nH]c(=O)[nH]c(=O)c1F
T/C [4]: 120 % of control
T/C [5]: 163 % of control and 175 % of control
T/C [6]: 96 % of control

CS(=O)(=O)OCC(O)C(O)C(O)C(O)COS(C)(=O)=O (configuration not stated)
T/C [7]: 100 % of control
T/C [8]: 103 % of control
T/C [9]: 103 % of control
T/C [10]: 114 % of control

CSc1ncnc2nc[nH]c12
T/C [11]: 100 % of control and 103 % of control
T/C [7]: 96 % of control and 115 % of control
T/C [8]: 103 % of control
T/C [9]: 100 % of control and 115 % of control

CN(C)c1ccc(/C=C/c2ccnc3ccccc23)cc1
T/C [12]: 93 % of control and 103 % of control
T/C [13]: 96 % of control and 100 % of control
T/C [14]: 93 % of control and 100 % of control

N=C(N)SCc1c2ccccc2c(CSC(=N)N)c2ccccc12
T/C [5]: 170 % of control
T/C [6]: 211 % of control
T/C [15]: 303 % of control
T/C [16]: 96 % of control

CCN(CC)CCNc1ccc(C)c2sc3ccccc3c(=O)c12
T/C [11]: 103 % of control
T/C [7]: 120 % of control and 123 % of control
T/C [8]: 103 % of control

O=c1cnn(C2OC(CO)C(O)C2O)c(=O)[nH]1 (configuration not stated)
T/C [9]: 106 % of control
T/C [10]: 112 % of control
T/C (dose: 800.0 mg/kg/injection, schedule: Q01DX010 (ip), vehicle: saline): 106 % of control

C[C@]12C=CC(=O)C=C1CC[C@@H]1[C@@H]2[C@@H](O)C[C@@]2(C)[C@H]1CC[C@]2(O)C(=O)CO
T/C (dose: 12.5 mg/kg/injection, schedule: Q01DX010 (sc), vehicle: steriod suspending solution): 123 % of control
T/C (dose: 25.0 mg/kg/injection, schedule: Q01DX010 (sc), vehicle: steriod suspending solution): 116 % of control
T/C (dose: 50.0 mg/kg/injection, schedule: Q01DX010 (sc), vehicle: steriod suspending solution): 110 % of control
T/C (dose: 100.0 mg/kg/injection, schedule: Q01DX010 (sc), vehicle: steriod suspending solution): 116 % of control

O=C(O)CCCc1ccc(N(CCCl)CCCl)cc1
T/C [17]: 100 % of control and 105 % of control
T/C [18]: 100 % of control and 123 % of control
T/C [19]: 114 % of control

CN1CC[C@]23c4c5ccc(O)c4O[C@H]2C(=O)CC[C@H]3[C@H]1C5
T/C [12]: 96 % of control
T/C [13]: 100 % of control and 103 % of control
T/C [14]: 96 % of control and 100 % of control
T/C [20]: 96 % of control and 100 % of control

O=C(Nc1ccc(C2=NCCN2)cc1)c1cccc(C(=O)Nc2ccc(C3=NCCN3)cc2)c1
T/C [13]: 113 % of control and 121 % of control
T/C [14]: 120 % of control
T/C [20]: 170 % of control and 189 % of control
T/C (dose: 64.0 mg/kg/injection, schedule: Q01DX010 (ip), vehicle: saline): 235 % of control

S=P(N1CCOCC1)(N1CC1)N1CC1
T/C (dose: 0.63 mg/kg/injection, schedule: Q01DX010 (ip), vehicle: saline): 100 % of control
T/C [4]: 100 % of control

COc1cc(-c2ccc(Nc3ccccc3C(=O)O)c(OC)c2)ccc1Nc1ccccc1C(=O)O
T/C [19]: 107 % of control
T/C [11]: 115 % of control
T/C [7]: 123 % of control

CS(=O)(=O)OCCN(CCOS(C)(=O)=O)c1ccc(N=O)cc1
T/C [1]: 123 % of control

CCOC(=O)c1[nH]c2ccccc2c1CN(CCCl)CCCl
T/C [6]: 116 % of control

Cc1c2oc3c(C)ccc(C(=O)N[C@@H]4C(=O)N[C@H](C(C)C)C(=O)N5CCC[C@H]5C(=O)N(C)CC(=O)N(C)[C@@H](C(C)C)C(=O)O[C@H]4C)c3nc-2c(C(=O)N[C@@H]2C(=O)N[C@H](C(C)C)C(=O)N3CCC[C@H]3C(=O)N(C)CC(=O)N(C)[C@@H](C(C)C)C(=O)O[C@H]2C)c(N)c1=O (I: [aThr][dV]P[Sar][NMeV] / II: [aThr][dV]P[Sar][NMeV]; ester I:1-I:C, II:1-II:C; linker I:N-II:N via Actinocin(9to1))
T/C (dose: 12.5 micrograms/kg/injection, schedule: Q01DX010 (ip), vehicle: other): 114 % of control and 123 % of control
T/C (dose: 25.0 micrograms/kg/injection, schedule: Q01DX010 (ip), vehicle: other): 123 % of control
T/C (dose: 50.0 micrograms/kg/injection, schedule: Q01DX010 (ip), vehicle: other): 150 % of control and 179 % of control
T/C (dose: 100.0 micrograms/kg/injection, schedule: Q01DX010 (ip), vehicle: other): 194 % of control

CN(C)/N=N/c1nc[nH]c1C(N)=O
T/C [11]: 114 % of control
T/C [7]: 114 % of control
T/C [9]: 114 % of control

Nc1c(Br)cc2c(c1Br)Cc1cc([N+](=O)[O-])ccc1-2
T/C (dose: 15.6 mg/kg/injection, schedule: Q01DX010 (ip), vehicle: saline): 100 % of control
T/C (dose: 31.3 mg/kg/injection, schedule: Q01DX010 (ip), vehicle: saline): 107 % of control and 118 % of control
T/C [21]: 107 % of control and 111 % of control
T/C [22]: 111 % of control and 114 % of control
T/C [23]: 103 % of control

N=[N+]=CC(=O)OCC(N)C(=O)O (configuration not stated)
T/C [17]: 102 % of control and 111 % of control
T/C [18]: 102 % of control and 108 % of control
T/C [19]: 91 % of control and 114 % of control

COCCCNP(=S)(N1CC1)N1CC1
T/C [1]: 93 % of control
T/C [2]: 100 % of control
T/C [3]: 113 % of control
T/C [12]: 116 % of control

Cc1cc(N(CCCl)CCCl)ccc1N=Nc1ccccc1C(=O)O
T/C [6]: 171 % of control
T/C [15]: 150 % of control and 166 % of control

O=CCC(O)C(O)C(O)CO (configuration not stated)
T/C [21]: 100 % of control
T/C [22]: 100 % of control and 103 % of control
T/C [23]: 103 % of control and 107 % of control
T/C [24]: 100 % of control and 110 % of control

CC1CN1P(=S)(N1CC1C)N1CC1C (configuration not stated)
T/C [4]: 103 % of control
T/C [25]: 93 % of control and 115 % of control
T/C [5]: 100 % of control and 111 % of control
T/C [6]: 111 % of control and 120 % of control
T/C [15]: 115 % of control

C[C@H]1C(=O)O[C@@H]2CCN3CC=C(COC(=O)[C@](C)(O)[C@@]1(C)O)[C@H]23
T/C [17]: 94 % of control and 100 % of control
T/C [18]: 93 % of control and 94 % of control
T/C [19]: 94 % of control and 103 % of control
T/C [11]: 91 % of control and 103 % of control

CC(=O)Nc1ccc2nc3ccc(NC(C)=O)cc3[n+](-c3ccccc3)c2c1
T/C [11]: 111 % of control
T/C [7]: 117 % of control

CN(C)c1nc(N(C)C)nc(N(C)C)n1
T/C (dose: 18.8 mg/kg/injection, schedule: Q01DX010 (ip), vehicle: saline): 96 % of control and 100 % of control
T/C (dose: 37.5 mg/kg/injection, schedule: Q01DX010 (ip), vehicle: saline): 100 % of control
T/C (dose: 75.0 mg/kg/injection, schedule: Q01DX010 (ip), vehicle: saline): 100 % of control
T/C (dose: 150.0 mg/kg/injection, schedule: Q01DX010 (ip), vehicle: saline): 100 % of control and 103 % of control

Clc1ncnc2nc[nH]c12
T/C (dose: 7.5 mg/kg/injection, schedule: Q01DX010 (ip), vehicle: saline): 100 % of control and 102 % of control
T/C (dose: 15.0 mg/kg/injection, schedule: Q01DX010 (ip), vehicle: saline): 90 % of control and 94 % of control
T/C (dose: 30.0 mg/kg/injection, schedule: Q01DX010 (ip), vehicle: saline): 90 % of control and 105 % of control
T/C (dose: 60.0 mg/kg/injection, schedule: Q01DX010 (ip), vehicle: saline): 96 % of control and 100 % of control

C[C@@H]1C[C@@H]([C@H](O)CC2CC(=O)NC(=O)C2)C(=O)[C@@H](C)C1
T/C [5]: 96 % of control and 105 % of control
T/C [6]: 93 % of control and 117 % of control
T/C [15]: 117 % of control and 121 % of control
T/C [16]: 108 % of control

CN(C)c1ccc(Nc2c3ccccc3nc3ccccc23)cc1
T/C (dose: 36.0 mg/kg/injection, schedule: Q01DX010 (ip), vehicle: saline): 107 % of control
T/C (dose: 54.0 mg/kg/injection, schedule: Q01DX010 (ip), vehicle: saline): 100 % of control and 115 % of control
T/C (dose: 80.0 mg/kg/injection, schedule: Q01DX010 (ip), vehicle: saline): 121 % of control and 123 % of control

CCOC(N)=O
T/C [22]: 103 % of control and 117 % of control
T/C [23]: 106 % of control and 111 % of control

O=c1cn[nH]c(=O)[nH]1
T/C [21]: 93 % of control and 108 % of control
T/C [22]: 103 % of control and 105 % of control
T/C [23]: 97 % of control and 106 % of control
T/C [24]: 102 % of control and 103 % of control

Nc1nc(=S)c2[nH]cnc2[nH]1
T/C (dose: 1.25 mg/kg/injection, schedule: Q01DX010 (ip), vehicle: other): 88 % of control
T/C [4]: 94 % of control
T/C [25]: 88 % of control

Nc1nc(SCc2ccccc2)c2[nH]cnc2n1
T/C [13]: 96 % of control and 100 % of control
T/C [14]: 96 % of control and 100 % of control
